Measured values taken from patent publication US20040181343A1, “Computer program products and systems for rapidly changing the solution environment around sensors” (Cellectricon AB, priority 2002, published 2004).

Tested on: PC-12 cell
Details: cell-scanning speed 250 μm/s
From the text: The flow rate was 3.24 mm/s and the cell scanning speed was 250 μm/s.
In these applications, as discussed above, both the flow rate of the fluids exiting the microchannels and the scan rate of the patch clamped cell are important. […] The width of each microchannel is 100 μm, the thickness is 50 μm, and the intermicrochannel spacing is 25 μm. The procedure used for fabricating the microchannels and for patch clamping are identical to that described in Example 2 (see above). The patch clamped cell used was a PC-12 cell, which was placed between 10 to 20 micrometers away from the outlets of the microchannels. Microchannels 1, 3, 5 and 7 were filled with PBS buffer, while microchannels 2, 4 and 6 were filled with acetylcholine. The flow rate of the fluid streams was 6.8 mm/s.
In a 7-microchannel structure, microchannels 1, 3, 5 and 7 were filled with PBS buffer, whereas microchannels 2, 4, and 6 were filled with 1 μM, 12 μM, and 200 μM nicotine, respectively. The flow rate used was […] and the cell-scanning speed was 250 μm/s. The patch-clamped cell was placed between 10 to 20 μm away from the outlet of the microchannel.

`CN1CCCC1c1cccnc1` (stereo not drawn) [nicotine] was tested. Which Whole-cell current response (1 μM nicotine) did it give?
Its Whole-cell current response is “barely discernible”.

What about the Whole-cell current peak (12 μM nicotine) of the same compound?
Its Whole-cell current peak is “detected with good signal-to-noise ratio”.

What about the “Current peak at 200 μM relative to the peak for 12 μM” value (200 μM nicotine versus 12 μM) of the same compound?
Its value is 15 to 20 times.
